Measurements reported in PubChem BioAssay (NCI).
Where “and” joins values, the source holds several entries; their conditions need not be identical. Identical values can stand only once.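 Each compound was tested at five concentrations against cells in 96-well plates for 48 hours. GI50 = concentration required for 50% inhibition of growth. Definition used: TGI = concentration required for complete inhibition of growth.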 Where a SMILES comes first, the peptide text is derived from it. Bridges are numbered along the chain shown (N, C = ends). The star is where a group is joined. Cbz = O=C(OCc1ccccc1)*

Legend:
Assay in all cases: NCI anticancer screen, dose series, 48 h
[1] = system: A498 renal
[2] = system: CCRF-CEM leukemia
[3] = system: OVCAR-4 ovarian
[4] = system: OVCAR-8 ovarian
[5] = system: PC-3 prostate
[6] = system: SF-268 CNS
[7] = system: SK-OV-3 ovarian
[8] = system: SNB-75 CNS
[9] = system: SR leukemia
[10] = system: U251 CNS

Row | SMILES | TGI [1] [µM] | TGI [2] [µM] | TGI [3] | TGI [4] | TGI [5] | TGI [6] | TGI [7] [µM] | TGI [8] | TGI [9] [µM] | TGI [10] | GI50 [1] | GI50 [3] | GI50 [5] | GI50 [2] [µM] | GI50 [4] [µM] | GI50 [6] [µM] | GI50 [7] [µM] | GI50 [8] [µM] | GI50 [9] [µM] | GI50 [10] [µM]
1 | CC1C2CC(C/C2=N/O)C1(C)C (stereo not drawn) | > 100 | > 100 | > 100 µM | > 100 µM | > 100 µM | > 100 µM | > 100 | > 100 µM | > 100 | > 100 µM |  |  |  |  |  |  |  |  |  | 
2 | O=C(/C=C(\O)c1ccccc1)/C(=C/C(=O)c1ccccc1)NN=C(c1ccccc1)c1ccccc1 | > 100 | 54.7 | > 100 µM | > 100 µM | > 100 µM | > 100 µM | 92.5 | > 100 µM | > 100 | > 100 µM |  |  |  |  |  |  |  |  |  | 
3 | COc1cc([C@H]2Oc3c(OC)cc(CCCO)cc3[C@@H]2CO)ccc1O | > 100 | > 100 | > 100 µM | > 100 µM | > 100 µM | > 100 µM | > 100 | > 100 µM | > 100 | > 100 µM |  |  |  |  |  |  |  |  |  | 
4 | CC(C)C(C/C=C1/CC(CO)(COC(=O)C2CCCCC2)OC1=O)C(C)C (stereo not drawn) | 76.2 | 63.2 | 41.4 µM | 32.7 µM | 35.6 µM | 33.8 µM | > 100 | 28.8 µM | > 100 | 43.9 µM |  |  |  |  |  |  |  |  |  | 
5 | Oc1ccc(Cl)cc1C1=N/C(=N\C/N=C2\N=C(c3cc(Cl)ccc3O)CC(c3ccccc3)N2)NC(c2ccccc2)C1 (stereo not drawn) | > 100 | > 100 | > 100 µM | > 100 µM | > 100 µM | > 100 µM | > 100 | > 100 µM | > 100 | > 100 µM |  |  |  |  |  |  |  |  |  | 
6 | Cc1ccc(OCC2OC(n3cnc4c(Cl)ncnc43)CC2Oc2ccc(C)cc2)cc1 (stereo not drawn) | > 70.8 | > 40 | 13.1 µM and > 56.6 µM | 24.6 µM and 24.2 µM | 9.35 µM and 34.3 µM | 21.8 µM and 26.9 µM | > 81.1 | 34.3 µM and > 68.7 µM | > 22.7 | 11 µM and > 50.4 µM | 20.4 µM and > 44.5 µM | 2.57 µM and 10.6 µM | 3.53 µM and 17.6 µM |  |  |  |  |  |  | 
7 | COc1cc(OC)cc(-c2n/c(=C\c3c(O)[nH]c4ccc(Cl)cc34)cc3c2=Nc2ccccc2-3)c1 | > 100 | > 100 | 3.77 µM | 15.5 µM | 28.7 µM | 11.4 µM | 26 | 39.6 µM | 5.59 | 3.22 µM | 30.9 µM | 1.76 µM | 5.55 µM | 3.34 | 3.51 | 3.35 | 10.2 | 16.3 | 2.24 | 1.75
8 | Cc1ccc(SC[C@@]2(C(F)F)NC(=O)NC2=O)cc1 | > 100 | > 100 | > 100 µM | > 100 µM | > 100 µM | > 100 µM | > 100 | > 100 µM | > 100 | > 100 µM |  |  |  |  |  |  |  |  |  | 
9 | N=C(N)SCCCN | > 100 | 9.2 | > 30.9 µM | > 100 µM | 54.1 µM | 79.2 µM | 73.4 | > 100 µM | 23.5 | 24.6 µM |  |  |  |  |  |  |  |  |  | 
10 | CC(C)(C)OC(=O)NCC(=O)NC1C/C(=N\O)c2sccc21 (stereo not drawn) | > 100 | > 100 | > 100 µM | > 100 µM | > 100 µM | > 100 µM | > 100 | > 100 µM | > 100 | > 100 µM |  |  |  |  |  |  |  |  |  | 
11 | CSc1ncc2c(n1)-c1ccccc1OC2NC(C)(C)C (stereo not drawn) | 7.36 | > 100 | > 100 µM | > 100 µM | > 100 µM | > 100 µM | > 100 | 88.1 µM | > 100 | > 100 µM |  |  |  |  |  |  |  |  |  | 
12 | Cc1ccnc(NC(=S)Nc2cccc(Cl)c2)c1 | > 100 | > 100 | > 100 µM | > 100 µM | > 100 µM | > 100 µM | > 100 | > 100 µM | > 100 | > 100 µM |  |  |  |  |  |  |  |  |  | 
13 | O=C(O)c1cc(Cl)cc2c1NC1(N2)C(=O)Nc2ccccc21 (stereo not drawn) | > 100 | > 100 | > 100 µM | > 100 µM | > 100 µM | > 100 µM | > 100 | > 100 µM | > 100 | > 100 µM |  |  |  |  |  |  |  |  |  | 
14 | CNC(=S)N/N=C(\C)c1nc2ncccc2[nH]1 | > 100 | > 100 | > 100 µM | > 100 µM | > 100 µM | > 100 µM | > 100 | > 100 µM | > 100 | > 100 µM |  |  |  |  |  |  |  |  |  | 
15 | CC1(C)CCCCCCCCCC(C)(CCCCCCCCCCCCO)C1=O (stereo not drawn) | 35.7 | 50.7 | 32.7 µM | 28.4 µM | 32.6 µM | 32 µM | 33.2 | 29.7 µM | > 100 | 33 µM |  |  |  |  |  |  |  |  |  | 
16 | C=C(Br)CNCC(=C)Br | > 100 | > 100 | > 100 µM | > 100 µM | > 100 µM | > 100 µM | > 100 | > 100 µM | > 100 | > 100 µM |  |  |  |  |  |  |  |  |  | 
17 | CC(C)(C)c1cc(C(=O)/C=C/c2ccn[nH]2)cc(C(C)(C)C)c1O | 6.25 | 5.97 | 18 µM | 6.02 µM | 5.18 µM | 6.39 µM | 31.7 | 9.61 µM | 3.61 | 3.11 µM |  |  |  |  |  |  |  |  |  | 
18 | COc1nc(OC)nc(-c2cccc(F)c2)n1 | 34.1 | > 100 | 39.6 µM | 69.2 µM | 40.2 µM | 32 µM | 31.4 | 44.4 µM | 17.5 | 31 µM |  |  |  |  |  |  |  |  |  | 
19 | CC(=O)CC(C)(C)NC(=O)[C@@]1(O)CC[C@H]2[C@@H]3CCC4=CC(=O)CC[C@@H]4[C@H]3CC[C@@]21C | > 100 | > 100 | > 100 µM | > 100 µM | > 100 µM | > 100 µM | > 100 | > 100 µM | > 100 | > 100 µM |  |  |  |  |  |  |  |  |  | 
20 | COC(=O)C1CCCCNC(=O)CCC(NC(=O)OCc2ccccc2)C(=O)N1 (stereo not drawn) (Cbz-Glu-Lys-OMe; lactam 1-2; configuration not given here) | > 100 | > 100 | > 100 µM | > 100 µM | > 100 µM | > 100 µM | > 100 | > 100 µM | > 100 | > 100 µM |  |  |  |  |  |  |  |  |  | 
21 | COc1cc(OC)c2c(O)c(S(=O)(=O)c3ccc(C)cc3)c(=O)oc2c1 | > 100 | > 100 | > 100 µM | > 100 µM | > 100 µM | > 100 µM | > 100 | > 100 µM | > 100 | > 100 µM |  |  |  |  |  |  |  |  |  | 
22 | CC(NNC(=O)c1ccncc1)c1ccc(Cl)c(Cl)c1 (stereo not drawn) | > 100 | > 100 | > 100 µM | > 100 µM | > 100 µM | > 100 µM | > 100 | > 100 µM | > 100 | > 100 µM |  |  |  |  |  |  |  |  |  | 
23 | CCOC(=O)C(NC(=O)CC)(Nc1ccc(S(=O)(=O)Nc2nc(C)cc(C)n2)cc1)C(F)(F)F (stereo not drawn) | > 100 | > 100 | > 100 µM | > 100 µM | > 100 µM | > 100 µM | > 100 | > 100 µM | > 100 | > 100 µM |  |  |  |  |  |  |  |  |  | 
24 | ONC1=Nc2ccccc2OCc2cc(Br)c(Br)cc2COc2ccccc2N=C1NO | 43.2 | > 34.1 | > 52.6 µM | > 47.5 µM | 31.3 µM | > 57.4 µM | > 53.1 | > 54.7 µM | 15.2 | 41.8 µM |  |  |  |  |  |  |  |  |  | 
25 | CCOC(=O)c1c(N2CCOCC2)[nH]c(=O)c(C(c2cccs2)c2c(O)c(C(=O)OCC)c(N3CCOCC3)[nH]c2=O)c1O | > 100 | > 100 | > 100 µM | > 100 µM | > 100 µM | > 100 µM | > 100 | > 100 µM | > 100 | > 100 µM |  |  |  |  |  |  |  |  |  | 
26 | CN(CCc1ccc(Cl)c(Cl)c1)CCN(C)CCN1CCCC1 | 26.3 | 14.6 | > 100 µM | 62 µM | 39.7 µM | 29.8 µM | 54.3 | 31.5 µM | 17.2 | 24.4 µM |  |  |  |  |  |  |  |  |  | 
27 | CC(=O)O[C@H]1CN(S(=O)(=O)c2ccc(C)cc2)C[C@@H]1C1CCCCC1 | > 100 | > 100 | > 100 µM | 73.2 µM | 58.5 µM | 90.8 µM | > 100 | 63.1 µM | > 100 | > 100 µM |  |  |  |  |  |  |  |  |  | 
28 | CCOC(=O)/C(C#N)=C(/NNc1ccccc1)c1ccncc1C(=O)O | > 100 | > 100 | > 100 µM | > 100 µM | > 100 µM | > 100 µM | > 100 | > 100 µM | > 100 | > 100 µM |  |  |  |  |  |  |  |  |  | 
29 | Cc1cc(O)ccc1C1(c2ccc(F)cc2)OC(=O)c2ccccc21 (stereo not drawn) | 32.9 | > 95.5 | 1.08 µM | 2.05 µM | 5.28 µM | 39.7 µM | 14.2 | 8.01 µM | > 76.8 | > 49.9 µM |  |  |  |  |  |  |  |  |  | 
